Test results taken from patent publication US8481539B2, “Alkynylaryl compounds and salts thereof, pharmaceutical compositions comprising same, methods of preparing same and uses of same” (Bayer Intellectual Property GmbH, priority 2007, dated 2013).

Columns and labels:
[1] = target: T1, Tie-2 (Homo sapiens, UniProt Q02763); test: Tie-2-Kinase HTRF-Assay (assay 2); format: biochemical; conditions: pIC50 class; 10 μM ATP; read-out: Enzymatic Tie 2 activity (assay 2)
T1 construct: fusion protein of GST and the intracellular domains of Tie-2; GST; made in house; host or cells: insect cells (Hi-5)
T1 sequence (Q02763 770-1124 limits assumed, species assumed): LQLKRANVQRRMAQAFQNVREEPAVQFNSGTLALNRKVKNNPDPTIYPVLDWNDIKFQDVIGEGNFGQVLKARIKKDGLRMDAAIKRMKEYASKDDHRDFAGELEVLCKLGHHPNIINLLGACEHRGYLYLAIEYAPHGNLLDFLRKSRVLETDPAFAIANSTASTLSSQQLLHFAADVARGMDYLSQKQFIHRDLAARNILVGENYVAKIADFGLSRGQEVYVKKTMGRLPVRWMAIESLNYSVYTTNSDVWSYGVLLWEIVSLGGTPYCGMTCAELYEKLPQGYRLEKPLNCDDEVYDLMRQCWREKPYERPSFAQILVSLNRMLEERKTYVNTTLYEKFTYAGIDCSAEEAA
From the text: Tie2-inhibitory activity of compounds of the present invention was quantified employing two Tie2 HTRF assay as described in the following paragraphs.
A recombinant fusion protein of GST and the intracellular domains of Tie-2, expressed in insect cells (Hi-5) and purified by Glutathion-Sepharose affinity chromatography was used as kinase. Alternatively, commercially available GST-Tie2-fusion protein (Upstate Biotechnology, Dundee, Scotland) can be used As substrate for the kinase reaction the biotinylated peptide biotin-Ahx-EPKDDAYPLYSDFG (C-terminus in amid form) was used which can be purchased e.g. from the company Biosynthan GmbH (Berlin-Buch, Germany). Detection of phosphorylated product is achieved specifically by a trimeric detection complex consisting of the phosphorylated substrate, streptavidin-XLent (SA-XLent) which binds to biotin, and Europium Cryptate-labeled anti-phosphotyrosine antibody PT66 which binds to phosphorylated tyrosine.
Tie-2 (3.5 ng/measurement point) was incubated for 60 min at 22° C. in the presence of 10 μM adenosine-tri-phosphate (ATP) and 1 μM substrate peptide (biotin-Ahx-EPKDDAYPLYSDFG-NH2) with different concentrations of test compounds (0 μM and concentrations in the range 0.001-20 μM) in 5 μl assay buffer [50 mM Hepes/NaOH pH 7, 10 mM MgCl2, 0.5 mM MnCl2, 1.0 mM dithiothreitol, 0.01% NP40, protease inhibitor mixture (“Complete w/o EDTA” from Roche, 1 tablet per 2.5 ml), 1% (v/v) dimethylsulfoxide]. The reaction was stopped by the addition of 5 μl of an aqueous buffer (25 mM Hepes/NaOH pH 7.5, 0.28% (w/v) bovine serum albumin) containing EDTA (90 mM) and the HTRF (Homogeneous Time Resolved Fluorescence) detection reagents streptavidine-XLent (0.2 μM, from Cis Biointemational, Marcoule, France) and PT66-Eu-Chelate (0.3 ng/μl; a europium-chelate labelled anti-phospho-tyrosine antibody from Perkin Elmer).
(§1) The resulting mixture was incubated 1 h at 22° C. to allow the binding of the biotinylated phosphorylated peptide to the streptavidine-XLent and the PT66-Eu-Chelate. Subsequently the amount of phosphorylated substrate peptide was evaluated by measurement of the resonance energy transfer from the PT66-Eu-Chelate to the streptavidine-XLent. Therefore, the fluorescence emissions at 620 nm and 665 nm after excitation at 350 nm was measured in a HTRF reader, e.g. a Rubystar (BMG Labtechnologies, Offenburg, Germany) or a Viewlux (Perkin-Elmer). The ratio of the emissions at 665 nm and at […] was taken as the measure for the amount of phosphorylated substrate peptide. The data were normalised (enzyme reaction without inhibitor=0 (% inhibition, all other assay components but no enzyme=100% inhibition) and IC50 values were calculated by a 4 parameter fit using an inhouse software.

[2] = target: T2, human PDGFRβ (Homo sapiens, UniProt P09619); test: PDGFRβ HTRF Assay (assay 6); format: biochemical; conditions: pIC50 class; 10 μM ATP; read-out: Enzymatic PDGFRβ activity (assay 6)
T2 construct: C-terminal fragment of human PDGFRβ (amino acids 561-1106); GST; His; purchased Proqinase [Freiburg i.Brsg., Germany]; host or cells: insect cells [SF9]
T2 sequence (P09619 561-1106): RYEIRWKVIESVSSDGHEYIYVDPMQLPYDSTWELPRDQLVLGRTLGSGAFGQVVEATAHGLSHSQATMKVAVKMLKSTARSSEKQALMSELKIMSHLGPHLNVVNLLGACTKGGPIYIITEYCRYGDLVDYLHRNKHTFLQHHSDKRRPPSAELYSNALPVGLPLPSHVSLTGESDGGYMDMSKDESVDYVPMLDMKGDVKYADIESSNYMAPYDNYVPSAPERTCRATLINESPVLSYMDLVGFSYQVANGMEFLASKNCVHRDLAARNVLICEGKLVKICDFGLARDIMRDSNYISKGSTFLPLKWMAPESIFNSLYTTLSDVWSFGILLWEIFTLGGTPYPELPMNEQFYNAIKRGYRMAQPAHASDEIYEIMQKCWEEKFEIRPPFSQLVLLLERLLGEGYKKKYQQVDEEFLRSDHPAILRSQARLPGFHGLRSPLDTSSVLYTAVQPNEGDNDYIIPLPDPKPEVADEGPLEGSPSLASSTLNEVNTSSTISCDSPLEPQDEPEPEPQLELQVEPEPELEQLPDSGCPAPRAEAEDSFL
From the text: Assay 6: PDGFRβ HTRF Assay
PDGFRβ inhibitory activity of compounds of the present invention was quantified employing the PDGFRβ HTRF assay as described in the following paragraphs.
As kinase, a GST-His fusion protein containing a C-terminal fragment of human PDGFRβ (amino acids 561-1106, expressed in insect cells [SF9] and purified by affinity chromatography, purchased from Proqinase [Freiburg i.Brsg., Germany] was used. As substrate for the kinase reaction the biotinylated poly-Glu, Tyr (4:1) copolymer (#61GT0BLA) from Cis Biointernational (Marcoule, France) was used.
For the assay 50 nl of a 100 fold concentrated solution of the test compound in DMSO was pipetted into a black low volume 384 well microtiter plate (Greiner Bio-One, Frickenhausen, Germany), 2 μl of a solution of PDGFRβ in aqueous assay buffer [50 mM HEPES/NaOH pH 7.5, 10 mM MgCl2, 2.5 mM dithiothreitol, 0.01% (v/v) Triton-X100 (Sigma)] were added and the mixture was incubated for 15 min at 22° C. to allow pre-binding of the test compounds to the enzyme before the start of the kinase reaction. Then the kinase reaction was started by the addition of 3 μl of a solution of adenosine-tri-phosphate (ATP, 16.7 μM=>final conc. in the 5 μl assay volume is 10 μM) and substrate (2.27 μg/ml=>final conc. in the 5 μl assay volume is 1.36 μg/ml [˜30 nM]) in assay buffer and the resulting mixture was incubated for a reaction time of 25 min at 22° C. The concentration of PDGFRβ in the assay was adjusted depending of the activity of the enzyme lot and was chosen appropriate to have the assay in the linear range, typical enzyme concentrations were in the range of about 125 pg/μl (final conc. in the 5 μl assay volume). The reaction was stopped by the addition of 5 μl of a solution of HTRF detection reagents (200 nM streptavidine-XLent [Cis Biointernational] and 1.4 nM PT66-Eu-Chelate, an europium-chelate labelled anti-phospho-tyrosine antibody from Perkin Elmer) in an aqueous EDTA-solution (100 mM EDTA, 0.2% (w/v) bovine serum albumin in 50 mM HEPES/NaOH pH 7.5).
as §1, with “substrate” for “substrate peptide”, “substrate. […]” for “substrate peptide. The data were normalised (enzyme reaction without inhibitor=0 (% inhibition, all other assay components but no enzyme=100% inhibition) and IC50 values were calculated by a 4 parameter fit using an inhouse software.”

| SMILES | IC50 [1] | IC50 [2] |
| --- | --- | --- |
| Cn1ncc2c(C#Cc3cc(NC(=O)c4cccc(C(F)(F)F)c4)ccc3F)cncc21 [Example 1.9, N-[4-Fluoro-3-(1-methyl-1H-pyrazolo[3,4-c]pyridin-4-ylethynyl)-phenyl]-3-trifluoromethyl-benzamide] | < 1000 nM | – |
| Cn1ncc2c(C#Cc3cccc(NC(=O)Nc4ccccc4)c3)cncc21 [Example 2.1, 1-[3-(1-Methyl-1H-pyrazolo[3,4-c]pyridin-4-ylethynyl)-phenyl]-3-phenyl-urea] | < 1000 nM | < 1000 nM |
| Cn1ncc2c(C#Cc3cccc(NC(=O)c4cccc(C(F)(F)F)c4)c3)cncc21 [Example 1.5, N-[3-(1-Methyl-1H-pyrazolo[3,4-c]pyridin-4-ylethynyl)-phenyl]-3-trifluoromethyl-benzamide] | < 1000 nM | < 1000 nM |
| Cc1ccc(NC(=O)c2cccc(C(F)(F)F)c2)cc1C#Cc1cncc2c1cnn2C [Example 1.6, N-[4-Methyl-3-(1-methyl-1H-pyrazolo[3,4-c]pyridin-4-ylethynyl)-phenyl]-3-trifluoromethyl-benzamide] | < 1000 nM | < 1000 nM |
| Cc1ccc(NC(=O)Nc2cccc(C(F)(F)F)c2)cc1C#Cc1cncc2c1cnn2C [Example 2.4, 1-[4-Methyl-3-(1-methyl-1H-pyrazolo[3,4-c]pyridin-4-ylethynyl)-phenyl]-3-(3-trifluoromethyl-phenyl)-urea] | < 1000 nM | < 1000 nM |
